Where a SMILES comes first, the peptide text is derived from it. [ ]: non-standard residue; d: D form. Nphe = O=C(O)CNCc1ccccc1; NPrGly = CCCNCC(=O)O; Nlys = NCCCCNCC(=O)O
Experiments:
[1] = molecular target: RAGE (Homo sapiens, UniProt Q15109); assay: RAGE binding to peptoid-coated 96-well plates, Scatchard plot; conditions: plates coated with 500 nM peptoid; JPT1a n=3 average, JPT1 n=1
Procedure: As shown in FIGS. 7A-7D, 96-well plates coated with 500 nM JPT1a were treated with concentrations of RAGE (FIG. 7A) or E-cadherin (FIG. 7B) ranging from 1 to 500 nM. Values are reported as the average concentration of bound protein determined from all experiments. Error bars indicate SEM, n=2-5. […] In FIG. 7D, 96-well plates coated with 500 nM JPT1 were treated with concentrations of RAGE ranging from 1 to 350 nM.

[2] = test system: RAGE; assay: RAGE upregulation in THP-1 macrophages co-incubated with peptoid and low-dose LPS (confocal imaging); assay type: cell-based, human; conditions: 3 days
Procedure: (§1) THP-1 monocytes were differentiated into macrophages through exposure to phorbol 12-myristate 13-acetate (PMA) for three days prior to experimentation 10. […] Upon differentiation, these cells were then incubated (3 days) with media containing JPT1a (50, 10, or 2 μM) alone or JPT1a (50, 10, or 2 μM) in the presence of low-dose (2 ng/mL) lipopolysaccharide (LPS) as a chronic pro-inflammatory stimulus 11. Treatment with 2 ng/mL LPS alone served as a positive control, while treatment with an equivalent volume of buffer diluted into media served as the vehicle. Cellular supernatant was harvested on day 3 12; these samples were immediately centrifuged at 1200 rpm for 10 min at 25° C. to remove any cells or debris. The top 80% of this volume was subsequently removed and stored at −80° C. for later assessment of cytokines via ELISA. Cells were fixed and stained for RAGE, phalloidin (cytoplasmic marker), and DAPI (nuclear marker) 13. Each channel was imaged with a Zeiss LSM 510 META Confocal Scanning Laser Microscope using a plan-neofluar 40×/1.3 oil DIC immersion objective; three of these multi-channel images were obtained from each slide in each experiment 14. All multi-channel images were converted to TIFF file format via ImageJ64 software for quantitative image analysis using a custom subroutine written in Matlab™ software to obtain the average RAGE expression per volume of cells, and the data generated was assessed for statistical significance using GraphPad Prism 7.0 software 15.
(§2) Images acquired via confocal microscopy were analyzed via custom MATLAB™ subroutine to determine the average quantity of RAGE present within a given volume of cells. Results within each experiment are normalized to the positive control (2 ng/mL LPS alone), indicated by the dashed line at 1. Significance relative to positive control is indicated as ** p<0.01. Error bars indicate SEM, n=4.
as §2, with “1.0.” for “1. Significance relative to positive control is indicated as ** p<0.01.”, “n=2.” for “n=4.”

[3] = test system: IL-1β; assay: IL-1β in supernatant of THP-1 macrophages co-incubated with peptoid and LPS (ELISA); assay type: cell-based, human; conditions: peptoid 50 μM with 2 ng/mL LPS, 3 days; vs LPS alone
Procedure: as §1, with “The top 80% of this volume was subsequently removed and stored at −80° C. for later assessment of cytokines via ELISA. Cells were fixed and stained for RAGE, phalloidin (cytoplasmic marker), and DAPI (nuclear marker) 13. Each channel was imaged with a Zeiss LSM 510 META Confocal Scanning Laser Microscope using a plan-neofluar 40×/1.3 oil DIC immersion objective; three of these multi-channel images were obtained from each slide in each experiment 14.” left out
(§3) As shown in FIGS. 2B-2D, THP-1 macrophages were treated with JPT1a alone (white) or in the presence of a chronic low-dose (2 ng/mL) of LPS (grey), for 3 days prior to supernatant harvest and storage. Examination of the supernatant via ELISA determined the concentrations of (FIG. 2B) IL-1β, (FIG. 2C) IL-6, and (FIG. 2D) IL-8. […]

[4] = test system: IL-6; assay: IL-6 in supernatant of THP-1 macrophages co-incubated with peptoid and LPS (ELISA); assay type: cell-based, human; conditions: peptoid 50 μM with 2 ng/mL LPS, 3 days; vs LPS alone
Procedure: as §1, with “Each channel was imaged with a Zeiss LSM 510 META Confocal Scanning Laser Microscope using a plan-neofluar 40×/1.3 oil DIC immersion objective; three of these multi-channel images were obtained from each slide in each experiment 14.” left out
as §3
as §3, with “5B-5D,” for “2B-2D,”, “JPT1” for “JPT1a”, “5B)” for “2B)”, “5C)” for “2C)”, “5D)” for “2D)”

RAGE (Homo sapiens, UniProt Q15109), sequence (Q15109 23-404): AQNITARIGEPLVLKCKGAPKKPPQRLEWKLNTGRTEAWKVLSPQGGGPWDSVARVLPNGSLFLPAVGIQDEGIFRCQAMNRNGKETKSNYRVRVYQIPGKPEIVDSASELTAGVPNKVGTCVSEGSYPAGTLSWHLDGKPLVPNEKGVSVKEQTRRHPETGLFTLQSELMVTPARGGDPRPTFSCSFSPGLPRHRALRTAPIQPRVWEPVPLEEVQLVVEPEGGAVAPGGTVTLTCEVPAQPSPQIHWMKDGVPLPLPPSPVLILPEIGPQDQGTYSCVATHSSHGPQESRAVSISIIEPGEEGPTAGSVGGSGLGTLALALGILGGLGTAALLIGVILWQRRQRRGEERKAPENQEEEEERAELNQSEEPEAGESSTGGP

Kd [1]: 78.8 nM
SMILES: CCCN(CC(=O)N(CCC)CC(=O)N(CC(=O)N(CC(=O)N(CCC)CC(=O)N(CC(=O)N(CC(N)=O)Cc1ccccc1)Cc1ccccc1)Cc1ccccc1)Cc1ccccc1)C(=O)CNCCCCN [JPT1] (H-[Nlys][NPrGly][NPrGly][Nphe][Nphe][NPrGly][Nphe][Nphe]-NH2)
upregulation in RAGE expression in the presence of LPS ([2]; peptoid 50, 10 or 2 μM with 2 ng/mL LPS, normalized to LPS alone): reduced in a dose-dependent manner | expression of RAGE, peptoid alone ([2]; peptoid alone (no LPS), relative to the control): does not provoke response or upregulation | LPS-induced production of IL-1β [3]: significantly attenuates | LPS-induced production of IL-6 [4]: significantly attenuates
